Experimental findings from US7214675B2, “Urea substituted imidazoquinoline ethers” (3M Innovative Properties Company, priority 2000, dated 2007) are described below.

The structures appear in SMILES notation.

Data set [1] relates to interferon (α) induction in human peripheral blood mononuclear cells (PBMC). Kind of data set: Cytokine induction in human cells: interferon (α) secreted by PBMC, ELISA. The format is cell-based. On the set-up: key to Lowest Effective Concentration (μM) Interferon: A “*” indicates that no induction was seen at any of the tested concentrations; generally the highest concentration tested was 10 or 30 μM. The settings on record: lowest concentration found to induce interferon, incubated 18 to 24 hours at 37° C. The text has this: (§1) An in vitro human blood cell system is used to assess cytokine induction. Activity is based on the measurement of interferon and tumor necrosis factor (α) (IFN and TNF, respectively) secreted into culture media as described by Testerman et. al. In “Cytokine Induction by the Immunomodulators Imiquimod and S-27609”, Journal of Leukocyte Biology, 58, 365–372 (September, 1995).
(§2) Whole blood from healthy human donors is collected by venipuncture into EDTA vacutainer tubes. Peripheral blood mononuclear cells (PBMC) are separated from whole blood by density gradient centrifugation using Histopaque®-1077. Blood is diluted 1:1 with Dulbecco's Phosphate Buffered Saline (DPBS) or Hank's Balanced Salts Solution (HBSS). The PBMC layer is collected and washed twice with DPBS or HBSS and resuspended at 4×10^6 cells/mL in RPMI complete. The PBMC suspension is added to 48 well flat bottom sterile tissue culture plates (Costar, Cambridge, Mass. or Becton Dickinson Labware, Lincoln Park, N.J.) containing an equal volume of RPMI complete media containing test compound.
(§3) The compounds are solubilized in dimethyl sulfoxide (DMSO). The DMSO concentration should not exceed a final concentration of 1% for addition to the culture wells. The compounds are generally tested at concentrations ranging from 30–0.014 μM.
(§4) The solution of test compound is added at 60 μM to the first well containing RPMI complete and serial 3 fold dilutions are made in the wells. The PBMC suspension is then added to the wells in an equal volume, bringing the test compound concentrations to the desired range (30–0.014 μM). The final concentration of PBMC suspension is 2×10^6 cells/mL. The plates are covered with sterile plastic lids, mixed gently and then incubated for 18 to 24 hours at 37° C. in a 5% carbon dioxide atmosphere.
(§5) Following incubation the plates are centrifuged for 10 minutes at 1000 rpm (˜200×g) at 4° C. The cell-free culture supernatant is removed with a sterile polypropylene pipet and transferred to sterile polypropylene tubes. Samples are maintained at −30 to −70° C. until analysis. The samples are analyzed for interferon (α) by ELISA and for tumor necrosis factor (α) by ELISA or IGEN Assay
Interferon (α) concentration is determined by ELISA using a Human Multi-Species kit from PBL Biomedical Laboratories, New Brunswick, N.J. Results are expressed in pg/mL.
(§6) The table below lists the lowest concentration found to induce interferon and the lowest concentration found to induce tumor necrosis factor for each compound.
(An ELISA detects its analyte on a solid surface through an enzyme-linked reagent.)

Data set [2] deals with tumor necrosis factor (α) induction in human peripheral blood mononuclear cells (PBMC). Kind of data set: Cytokine induction in human cells: tumor necrosis factor (α) secreted by PBMC, ELISA or IGEN assay. The format is cell-based. On the set-up: key to Lowest Effective Concentration (μM) Tumor Necrosis Factor: A “*” indicates that no induction was seen at any of the tested concentrations; generally the highest concentration tested was 10 or 30 μM. The settings on record: lowest concentration found to induce tumor necrosis factor, incubated 18 to 24 hours at 37° C.
Source text: as §1, §2, §3, §4, §5
Tumor necrosis factor (α) (TNF) concentration is determined using ELISA kits available from Biosource International, Camarillo, Calif. Alternately, the TNF concentration can be determined by Origen® M-Series Immunoassay and read on an IGEN M-8 analyzer from IGEN International, Gaithersburg, Md. The immunoassay uses a human TNF capture and detection antibody pair from Biosource International, Camarillo, Calif. Results are expressed in pg/mL.
as §6

Usually minimal effective concentration stands for the lowest level tested that produced the effect sought. Broadly, the melting point is the temperature, or range, at which the solid turns liquid.

Consider `CCC(COCCC1CCN(C(=O)NC2CCCCC2)CC1)n1cnc2c(N)nc3ccccc3c21` (centres unmarked) [Example 26], for which the minimal effective concentration in data set [1] worked out at 0.1 µM; in data set [2], 1 µM.
The matching figures for `CCC(COCCC1CCN(C(=O)Nc2cccc(OC)c2)CC1)n1cnc2c(N)nc3ccccc3c21` (centres unmarked) [Example 28]: 0.1 µM and 1 µM.
Regarding `CCC(COCCC1CCN(C(=S)Nc2ccccc2)CC1)n1cnc2c(N)nc3ccccc3c21` (centres unmarked) [Example 36], the minimal effective concentration in data set [1] came to 0.1 µM. Further, the “Lowest Effective Concentration (μM) Tumor Necrosis Factor” value in data set [2] was “*”.
Take `Nc1nc2ccccc2c2c1ncn2CCOCCNC(=O)NS(=O)(=O)c1ccccc1` [Example 44]: in data set [1], the “Lowest Effective Concentration (μM) Interferon” value is on record as “*”. In data set [2], the “Lowest Effective Concentration (μM) Tumor Necrosis Factor” value was “*”.
Regarding `CCOCc1nc2c(N)nc3ccccc3c2n1CCOCCNC(=O)Nc1ccccc1` [Example 53, N-(2-{2-[4-amino-2-(ethoxymethyl)-1H-imidazo[4,5-c]quinolin-1-yl]ethoxy}ethyl)-N′-phenylurea], the melting point is 183 to 186 °C.
Consider `N#Cc1cccc(NC(=O)NCCOCCn2cnc3c(N)nc4ccccc4c32)c1` [Example 40], for which the minimal effective concentration in data set [1] and in data set [2] was 10 µM throughout.
For `COc1ccc(NC(=O)NCCOCCn2cnc3c(N)nc4ccccc4c32)c(OC)c1` [Example 43], the minimal effective concentration in data set [1] and in data set [2] was 10 µM in each case.
Take `CCCCNC(=O)NCCOCCn1c(CCCC)nc2c(N)nc3ccccc3c21` [Example 9]: the results for the minimal effective concentration in data set [1] and in data set [2] were 0.0001 µM and 1 µM, respectively.
As for `Nc1nc2ccccc2c2c1ncn2CCOCCNC(=O)Nc1ccccc1` [Example 38], the minimal effective concentration in data set [1] and in data set [2] was 10 µM in each case.
For the compound `Nc1nc2ccccc2c2c1ncn2CCOCCNC(=O)NC1CCCCC1` [Example 39], the minimal effective concentration in data set [1] and in data set [2] was 10 µM in each case.
For the compound `CCCCc1nc2c(N)nc3ccccc3c2n1CCOCCNC(=O)Nc1ccccc1` [Example 10], the minimal effective concentration in data set [1] was found to be 0.0001 µM; in data set [2], 10 µM.
For `CCC(COCCC1CCN(C(=O)Nc2ccc(OC)cc2OC)CC1)n1cnc2c(N)nc3ccccc3c21` (centres unmarked) [Example 32], the figures for the minimal effective concentration in data set [1] and in data set [2] were 0.1 µM and 1 µM, respectively.
Consider `CCCCc1nc2c(N)nc3ccccc3c2n1CCOCCNC(=O)NS(=O)(=O)c1ccccc1` [Example 19], for which the minimal effective concentration in data set [1] amounted to 0.1 µM; in data set [2], 10 µM.
For `CCC(COCCC1CCN(C(=O)NS(=O)(=O)c2ccc(Cl)cc2)CC1)n1cnc2c(N)nc3ccccc3c21` (centres unmarked) [Example 34], in that order: 1 µM and 10 µM.
As for `CCCCc1nc2c(N)nc3ccccc3c2n1CCOCCNC(=O)Nc1ccc(OC)cc1OC` [Example 18], the minimal effective concentration in data set [1] is 1 µM. For the same compound, in data set [2], the “Lowest Effective Concentration (μM) Tumor Necrosis Factor” value is given as “*”.
The matching figures for `Nc1nc2ccccc2c2c1ncn2CCOCCNC(=O)N[C@@H]1C[C@H]1c1ccccc1` [Example 42]: 10 µM and “*”.
For the compound `CCC(COCCC1CCN(C(=O)N2CCOCC2)CC1)n1cnc2c(N)nc3ccccc3c21` (centres unmarked) [Example 25], the values for the minimal effective concentration in data set [1] and in data set [2] were 0.1 µM and 1 µM, respectively.
On to `COc1cccc(NC(=O)NCCOCCn2cnc3c(N)nc4ccccc4c32)c1` [Example 41], for which the minimal effective concentration in data set [1] and in data set [2] was 10 µM each time.
Take `CCC(COCCC1CCN(C(=O)Nc2ccccc2)CC1)n1cnc2c(N)nc3ccccc3c21` (centres unmarked) [Example 24]: the minimal effective concentration in data set [1] was 0.1 µM; in data set [2] it was 1 µM.
Regarding `CCCCNC(=O)N1CCC(CCOCC(CC)n2cnc3c(N)nc4ccccc4c32)CC1` (centres unmarked) [Example 23], the minimal effective concentration in data set [1] and in data set [2] was 1 µM in each case.
As for `CCC(COCCC1CCN(C(=O)NC(C)C)CC1)n1cnc2c(N)nc3ccccc3c21` (centres unmarked) [Example 22], the minimal effective concentration in data set [1] amounted to 0.1 µM; in data set [2] it was 1 µM.
For `CCCCc1nc2c(N)nc3ccccc3c2n1CCOCCNC(=O)NC(C)C` [Example 7], in that order: 0.0001 µM and 10 µM.
Turning to `CCCCc1nc2c(N)nc3ccccc3c2n1CCOCCNC(=O)Nc1cccc(SC)c1` [Example 17], in data set [1], the “Lowest Effective Concentration (μM) Interferon” value is listed as “*”. In data set [2], this compound gave a minimal effective concentration of 10 µM.
`CCC(COCCC1CCN(C(=O)Nc2cccc(C#N)c2)CC1)n1cnc2c(N)nc3ccccc3c21` (centres unmarked) [Example 27]: the figures for the minimal effective concentration in data set [1] and in data set [2] were 0.1 µM and 1 µM, respectively.
Consider `CCCCc1nc2c(N)nc3ccccc3c2n1CCOCCNC(=O)N[C@H]1C[C@@H]1c1ccccc1` [Example 15], for which the minimal effective concentration in data set [1] was 0.0001 µM; in data set [2], 0.1 µM.
For `CCC(COCCC1CCN(C(=O)Nc2cccc(SC)c2)CC1)n1cnc2c(N)nc3ccccc3c21` (centres unmarked) [Example 31], in that order: 1 µM and 10 µM.
The matching figures for `CCCCc1nc2c(N)nc3ccccc3c2n1CCOCCNC(=O)NC(C)(C)C` [Example 8]: 0.0001 µM and 10 µM.
With `CCC(COCCC1CCN(C(=O)NS(=O)(=O)c2ccc(C)cc2)CC1)n1cnc2c(N)nc3ccccc3c21` (centres unmarked) [Example 33], the minimal effective concentration in data set [1] was 1 µM; in data set [2], 10 µM.
Regarding `CCC(COCCC1CCN(C(=O)N[C@@H]2C[C@H]2c2ccccc2)CC1)n1cnc2c(N)nc3ccccc3c21` (some centres unmarked) [Example 29], the minimal effective concentration turned out to be 0.1 µM in data set [1] and 1 µM in data set [2].
Take `CCCCc1nc2c(N)nc3ccccc3c2n1CCOCCNC(=O)Nc1cccc(OC)c1` [Example 14]: the minimal effective concentration in data set [1] was 0.0001 µM; in data set [2], 10 µM.
Regarding `CC(C)(C)NC(=O)NCCOCCn1cnc2c(N)nc3ccccc3c21` [Example 37], the minimal effective concentration in data set [1] and in data set [2] was 10 µM throughout.
For the compound `CCCCc1nc2c(N)nc3ccccc3c2n1CCOCCNC(=O)Nc1ccc(N(C)C)cc1` [Example 16], the minimal effective concentration is 0.0001 µM in data set [1] and 10 µM in data set [2].
Turning to `CCC(COCCC1CCN(C(=O)Nc2cccc(C(C)=O)c2)CC1)n1cnc2c(N)nc3ccccc3c21` (centres unmarked) [Example 30], the minimal effective concentration in data set [1] and in data set [2] was 1 µM in each case.
Take `CCCCc1nc2c(N)nc3ccccc3c2n1CCOCCNC(=O)Nc1cccc(C#N)c1` [Example 13]: the minimal effective concentration came to 0.0001 µM in data set [1] and 1 µM in data set [2].
For `CCCCc1nc2c(N)nc3ccccc3c2n1CCOCCNC(=O)NS(=O)(=O)c1ccc(Cl)cc1` [Example 21], in that order: 1 µM and 10 µM.
As for `CCCCc1nc2c(N)nc3ccccc3c2n1CCOCCNC(=O)NS(=O)(=O)c1ccc(C)cc1` [Example 20], the results for the minimal effective concentration in data set [1] and in data set [2] were 0.01 µM and 10 µM, respectively.
On to `CCCCc1nc2c(N)nc3ccccc3c2n1CCOCCNC(=O)N1CCOCC1` [Example 11], for which the minimal effective concentration stood at 0.0001 µM in data set [1] and 0.1 µM in data set [2].
As to `CCCCc1nc2c(N)nc3ccccc3c2n1CCOCCNC(=O)NC1CCCCC1` [Example 12], the minimal effective concentration in data set [1] is 0.0001 µM; in data set [2], 1 µM.
For `CCC(COCCC1CCN(C(=S)NC(=O)c2ccco2)CC1)n1cnc2c(N)nc3ccccc3c21` (centres unmarked) [Example 35], in that order: 1 µM and 1 µM.
